Measured values published in patent publication US9605004B2, “Chemical compounds” (SYNGENTA LIMITED, priority 2013, dated 2017).

Key:
[1] = tested on: a variety of test species; experiment: Pre-emergence herbicidal activity (Example 8a, Table 2); type: in vivo; design: key: 0 = no damage to plant, 5 = total damage to plant; conditions: application pre-emergence, rate 1000 g/ha, evaluated after 13 days
Outline: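 Seeds sown in standard soil in pots, held one day in glasshouse (24/16 °C day/night, 14 h light, 65% humidity), then sprayed with aqueous solution of compound formulated in acetone/water 50:50 with 0.5% Tween 20. Grown on under same conditions, watered twice daily; damage scored after 13 days (0 = none, 5 = total).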

[2] = tested on: a variety of test species; experiment: Post-emergence herbicidal activity (Example 8b, Table 3); type: in vivo; conditions: application post-emergence, rate 1000 g/ha, evaluated after 13 days, scale 0-5; for Herbicidal damage score, ABUTH: Abutilon theophrasti; for Herbicidal damage score, ALOMY: Alopecurus myosuroides; for Herbicidal damage score, AMARE: Amaranthus retroflexus; for Herbicidal damage score, ECHCG: Echinochloa crus-galli; for Herbicidal damage score, SETFA: Setaria faberi; for Herbicidal damage score, ZEAMX: Zea mays
Outline: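 Damage rating 0 (none) to 5 (total), assessed 13 days after spraying. Plants received the compound in acetone/water 50:50 with 0.5% Tween 20 at 8 days post-sowing, then were kept at 24/16 °C, 14 h photoperiod, 65% RH.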

CC1=C(Cl)C(=O)N(c2nn(C)c(C(C)(C)CCl)c2Cl)C1O (stereo not drawn) [Compound D4]
4: Pre-emergence herbicidal activity, damage score ECHCG [1] | Herbicidal damage score, ALOMY [2] | Herbicidal damage score, AMARE [2] | Herbicidal damage score, SETFA [2]
0: Herbicidal damage score, ZEAMX [2]
5: Pre-emergence herbicidal activity, damage score ABUTH [1] | Herbicidal damage score, ABUTH [2] | Herbicidal damage score, ECHCG [2]
2: Pre-emergence herbicidal activity, damage score AMARE [1] | Pre-emergence herbicidal activity, damage score SETFA [1] | Pre-emergence herbicidal activity, damage score ZEAMX [1]
3: Pre-emergence herbicidal activity, damage score ALOMY [1]

CSc1c(C#N)c(N2C(=O)C(Cl)=C(C)C2O)nn1C (stereo not drawn) [Compound D5]
0: Pre-emergence herbicidal activity, damage score ABUTH [1] | Pre-emergence herbicidal activity, damage score ALOMY [1] | Pre-emergence herbicidal activity, damage score AMARE [1] | Pre-emergence herbicidal activity, damage score ECHCG [1] | Pre-emergence herbicidal activity, damage score SETFA [1] | Pre-emergence herbicidal activity, damage score ZEAMX [1] | Herbicidal damage score, ABUTH [2] | Herbicidal damage score, ALOMY [2] | Herbicidal damage score, AMARE [2] | Herbicidal damage score, ECHCG [2] | Herbicidal damage score, SETFA [2] | Herbicidal damage score, ZEAMX [2]

CCn1nc(N2C(=O)C(Cl)=C(C)C2O)c2c1C(C)(C)CC2 (stereo not drawn) [Compound E1]
4: Pre-emergence herbicidal activity, damage score ALOMY [1] | Pre-emergence herbicidal activity, damage score SETFA [1] | Herbicidal damage score, ALOMY [2] | Herbicidal damage score, ZEAMX [2]
5: Pre-emergence herbicidal activity, damage score ABUTH [1] | Pre-emergence herbicidal activity, damage score AMARE [1] | Pre-emergence herbicidal activity, damage score ECHCG [1] | Herbicidal damage score, ABUTH [2] | Herbicidal damage score, AMARE [2] | Herbicidal damage score, ECHCG [2] | Herbicidal damage score, SETFA [2]
2: Pre-emergence herbicidal activity, damage score ZEAMX [1]

CCn1nc(N2C(=O)C(Cl)=C(C)C2O)c2c1C(C)(C)CC2 (stereo not drawn) [Compound E2]
3: Pre-emergence herbicidal activity, damage score ALOMY [1] | Pre-emergence herbicidal activity, damage score ZEAMX [1]
5: Pre-emergence herbicidal activity, damage score ABUTH [1] | Pre-emergence herbicidal activity, damage score AMARE [1] | Pre-emergence herbicidal activity, damage score ECHCG [1] | Pre-emergence herbicidal activity, damage score SETFA [1] | Herbicidal damage score, ABUTH [2] | Herbicidal damage score, ALOMY [2] | Herbicidal damage score, AMARE [2] | Herbicidal damage score, ECHCG [2] | Herbicidal damage score, SETFA [2] | Herbicidal damage score, ZEAMX [2]

CC1=C(Cl)C(=O)N(c2nn(C)c3c2CCCCC3(C)C)C1O (stereo not drawn) [Compound E3]
4: Pre-emergence herbicidal activity, damage score ABUTH [1] | Pre-emergence herbicidal activity, damage score ECHCG [1] | Herbicidal damage score, ABUTH [2] | Herbicidal damage score, ALOMY [2] | Herbicidal damage score, SETFA [2]
5: Pre-emergence herbicidal activity, damage score AMARE [1] | Herbicidal damage score, AMARE [2] | Herbicidal damage score, ECHCG [2]
1: Pre-emergence herbicidal activity, damage score ZEAMX [1]
2: Pre-emergence herbicidal activity, damage score ALOMY [1] | Pre-emergence herbicidal activity, damage score SETFA [1] | Herbicidal damage score, ZEAMX [2]

CC1=C(Cl)C(=O)N(c2nn(C)c3c2C2CCC3C2)C1O (stereo not drawn) [Compound E4]
5: Pre-emergence herbicidal activity, damage score ABUTH [1] | Pre-emergence herbicidal activity, damage score AMARE [1] | Pre-emergence herbicidal activity, damage score SETFA [1] | Herbicidal damage score, ABUTH [2] | Herbicidal damage score, AMARE [2] | Herbicidal damage score, ECHCG [2] | Herbicidal damage score, SETFA [2]
2: Pre-emergence herbicidal activity, damage score ZEAMX [1]
3: Pre-emergence herbicidal activity, damage score ALOMY [1]
4: Pre-emergence herbicidal activity, damage score ECHCG [1] | Herbicidal damage score, ALOMY [2] | Herbicidal damage score, ZEAMX [2]

CC1=C(Cl)C(=O)N(c2nn(C)c3c2CCCC3(C)C)C1O (stereo not drawn) [Compound E5]
5: Pre-emergence herbicidal activity, damage score ABUTH [1] | Pre-emergence herbicidal activity, damage score AMARE [1] | Pre-emergence herbicidal activity, damage score ECHCG [1] | Pre-emergence herbicidal activity, damage score SETFA [1] | Herbicidal damage score, ABUTH [2] | Herbicidal damage score, ALOMY [2] | Herbicidal damage score, AMARE [2] | Herbicidal damage score, ECHCG [2] | Herbicidal damage score, SETFA [2]
2: Pre-emergence herbicidal activity, damage score ZEAMX [1]
4: Herbicidal damage score, ZEAMX [2]
3: Pre-emergence herbicidal activity, damage score ALOMY [1]

CC1=C(Cl)C(=O)N(c2cc(C(C)(C)C)n(C)n2)C1OC(=O)OCC(C)C (stereo not drawn) [Compound F1]
3: Pre-emergence herbicidal activity, damage score ALOMY [1]
4: Pre-emergence herbicidal activity, damage score SETFA [1]
5: Pre-emergence herbicidal activity, damage score ABUTH [1] | Pre-emergence herbicidal activity, damage score AMARE [1] | Pre-emergence herbicidal activity, damage score ECHCG [1] | Herbicidal damage score, ABUTH [2] | Herbicidal damage score, ALOMY [2] | Herbicidal damage score, AMARE [2] | Herbicidal damage score, ECHCG [2] | Herbicidal damage score, SETFA [2] | Herbicidal damage score, ZEAMX [2]
2: Pre-emergence herbicidal activity, damage score ZEAMX [1]

CC1=C(Cl)C(=O)N(c2cc(C(C)(C)C)n(C)n2)C1OC(=O)Oc1ccccc1 (stereo not drawn) [Compound F2]
5: Pre-emergence herbicidal activity, damage score ABUTH [1] | Pre-emergence herbicidal activity, damage score AMARE [1] | Pre-emergence herbicidal activity, damage score ECHCG [1] | Herbicidal damage score, ABUTH [2] | Herbicidal damage score, ALOMY [2] | Herbicidal damage score, AMARE [2] | Herbicidal damage score, ECHCG [2] | Herbicidal damage score, SETFA [2] | Herbicidal damage score, ZEAMX [2]
3: Pre-emergence herbicidal activity, damage score ALOMY [1] | Pre-emergence herbicidal activity, damage score ZEAMX [1]
4: Pre-emergence herbicidal activity, damage score SETFA [1]

CC1=C(Cl)C(=O)N(c2cc(C(C)(C)C)n(C)n2)C1OC(=O)Oc1ccccc1 (stereo not drawn) [Compound F3]
4: Pre-emergence herbicidal activity, damage score SETFA [1]
5: Pre-emergence herbicidal activity, damage score ABUTH [1] | Pre-emergence herbicidal activity, damage score AMARE [1] | Pre-emergence herbicidal activity, damage score ECHCG [1] | Herbicidal damage score, ABUTH [2] | Herbicidal damage score, ALOMY [2] | Herbicidal damage score, AMARE [2] | Herbicidal damage score, ECHCG [2] | Herbicidal damage score, SETFA [2] | Herbicidal damage score, ZEAMX [2]
3: Pre-emergence herbicidal activity, damage score ALOMY [1] | Pre-emergence herbicidal activity, damage score ZEAMX [1]

CC1=C(Cl)C(=O)N(c2cc(C(C)(C)C)n(C)n2)C1OC(=O)OCC(C)C (stereo not drawn) [Compound F4]
5: Pre-emergence herbicidal activity, damage score ABUTH [1] | Pre-emergence herbicidal activity, damage score AMARE [1] | Pre-emergence herbicidal activity, damage score ECHCG [1] | Herbicidal damage score, ABUTH [2] | Herbicidal damage score, ALOMY [2] | Herbicidal damage score, AMARE [2] | Herbicidal damage score, ECHCG [2] | Herbicidal damage score, SETFA [2] | Herbicidal damage score, ZEAMX [2]
4: Pre-emergence herbicidal activity, damage score SETFA [1]
2: Pre-emergence herbicidal activity, damage score ZEAMX [1]
3: Pre-emergence herbicidal activity, damage score ALOMY [1]

CC1=C(Cl)C(=O)N(c2cc3n(n2)CCC3(C)C)C1O (stereo not drawn) [Compound G2]
4: Pre-emergence herbicidal activity, damage score ALOMY [1] | Pre-emergence herbicidal activity, damage score ZEAMX [1] | Herbicidal damage score, ZEAMX [2]
5: Pre-emergence herbicidal activity, damage score ABUTH [1] | Pre-emergence herbicidal activity, damage score AMARE [1] | Pre-emergence herbicidal activity, damage score ECHCG [1] | Pre-emergence herbicidal activity, damage score SETFA [1] | Herbicidal damage score, ABUTH [2] | Herbicidal damage score, ALOMY [2] | Herbicidal damage score, AMARE [2] | Herbicidal damage score, ECHCG [2] | Herbicidal damage score, SETFA [2]

CC1=C(Cl)C(=O)N(c2cc3n(n2)CCCC3(C)C)C1O (stereo not drawn) [Compound G4]
5: Pre-emergence herbicidal activity, damage score ABUTH [1] | Pre-emergence herbicidal activity, damage score AMARE [1] | Pre-emergence herbicidal activity, damage score ECHCG [1] | Pre-emergence herbicidal activity, damage score SETFA [1] | Herbicidal damage score, ABUTH [2] | Herbicidal damage score, ALOMY [2] | Herbicidal damage score, AMARE [2] | Herbicidal damage score, ECHCG [2] | Herbicidal damage score, SETFA [2] | Herbicidal damage score, ZEAMX [2]
4: Pre-emergence herbicidal activity, damage score ALOMY [1]
3: Pre-emergence herbicidal activity, damage score ZEAMX [1]

CC1=C(Cl)C(=O)N(c2cc3n(n2)CCC3(C)C)C1O (stereo not drawn) [Compound G8]
5: Pre-emergence herbicidal activity, damage score ABUTH [1] | Pre-emergence herbicidal activity, damage score AMARE [1] | Pre-emergence herbicidal activity, damage score ECHCG [1] | Pre-emergence herbicidal activity, damage score SETFA [1] | Herbicidal damage score, ABUTH [2] | Herbicidal damage score, ALOMY [2] | Herbicidal damage score, AMARE [2] | Herbicidal damage score, ECHCG [2] | Herbicidal damage score, SETFA [2]
4: Pre-emergence herbicidal activity, damage score ALOMY [1] | Pre-emergence herbicidal activity, damage score ZEAMX [1] | Herbicidal damage score, ZEAMX [2]

CC1=C(Cl)C(=O)N(c2cc3n(n2)CCCC3(C)C)C1O (stereo not drawn) [Compound G9]
4: Pre-emergence herbicidal activity, damage score ALOMY [1]
5: Pre-emergence herbicidal activity, damage score ABUTH [1] | Pre-emergence herbicidal activity, damage score AMARE [1] | Pre-emergence herbicidal activity, damage score ECHCG [1] | Pre-emergence herbicidal activity, damage score SETFA [1] | Herbicidal damage score, ABUTH [2] | Herbicidal damage score, ALOMY [2] | Herbicidal damage score, AMARE [2] | Herbicidal damage score, ECHCG [2] | Herbicidal damage score, SETFA [2] | Herbicidal damage score, ZEAMX [2]
3: Pre-emergence herbicidal activity, damage score ZEAMX [1]
